Assay results as given in patent US20250152585A1, “PHARMACEUTICAL COMPOUND” (Duke Street Bio Limited, priority 2022, published 2025).
pIC50, pKd: −log10 of the molar value. Where two headings read alike, the source gives them in different places.

Columns and labels:
[1] = molecular target: T1, N-terminally FLAG-tagged PARP2 (amino acids 1-583) (Homo sapiens, UniProt Q9UGN5); experiment: PARP2 probe displacement HTRF assay; assay type: binding; details: binned Kd
T1 construct: N-terminally FLAG-tagged PARP2 (amino acids 1-583)
T1 sequence (Q9UGN5 whole entry, the tested form may be a part): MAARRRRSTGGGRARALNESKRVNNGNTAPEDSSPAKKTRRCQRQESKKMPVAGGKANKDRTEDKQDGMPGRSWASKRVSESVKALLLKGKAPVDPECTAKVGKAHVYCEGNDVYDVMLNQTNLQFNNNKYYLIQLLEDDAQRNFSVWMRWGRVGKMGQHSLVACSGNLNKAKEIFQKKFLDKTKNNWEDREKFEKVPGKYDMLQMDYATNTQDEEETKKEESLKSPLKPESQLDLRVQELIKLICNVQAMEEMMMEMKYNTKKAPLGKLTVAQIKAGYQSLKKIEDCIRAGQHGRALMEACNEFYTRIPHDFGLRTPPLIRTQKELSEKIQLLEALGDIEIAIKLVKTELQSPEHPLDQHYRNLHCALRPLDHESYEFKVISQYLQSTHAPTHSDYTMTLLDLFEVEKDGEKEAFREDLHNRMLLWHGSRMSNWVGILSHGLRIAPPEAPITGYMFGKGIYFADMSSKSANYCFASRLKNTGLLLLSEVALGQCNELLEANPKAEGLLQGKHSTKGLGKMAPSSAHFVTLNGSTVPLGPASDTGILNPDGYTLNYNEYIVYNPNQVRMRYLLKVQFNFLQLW
Method: Data analysis was performed identical as for PARP1.

[2] = molecular target: T2, full length N-terminally FLAG-tagged PARP1 (Homo sapiens, UniProt P09874); experiment: PARP1 probe displacement HTRF assay; details: for Selectivity: PARP1 over PARP2, ratio Kd (PARP2)/Kd (PARP1); for pKd: binned Kd
T2 sequence (P09874 whole entry): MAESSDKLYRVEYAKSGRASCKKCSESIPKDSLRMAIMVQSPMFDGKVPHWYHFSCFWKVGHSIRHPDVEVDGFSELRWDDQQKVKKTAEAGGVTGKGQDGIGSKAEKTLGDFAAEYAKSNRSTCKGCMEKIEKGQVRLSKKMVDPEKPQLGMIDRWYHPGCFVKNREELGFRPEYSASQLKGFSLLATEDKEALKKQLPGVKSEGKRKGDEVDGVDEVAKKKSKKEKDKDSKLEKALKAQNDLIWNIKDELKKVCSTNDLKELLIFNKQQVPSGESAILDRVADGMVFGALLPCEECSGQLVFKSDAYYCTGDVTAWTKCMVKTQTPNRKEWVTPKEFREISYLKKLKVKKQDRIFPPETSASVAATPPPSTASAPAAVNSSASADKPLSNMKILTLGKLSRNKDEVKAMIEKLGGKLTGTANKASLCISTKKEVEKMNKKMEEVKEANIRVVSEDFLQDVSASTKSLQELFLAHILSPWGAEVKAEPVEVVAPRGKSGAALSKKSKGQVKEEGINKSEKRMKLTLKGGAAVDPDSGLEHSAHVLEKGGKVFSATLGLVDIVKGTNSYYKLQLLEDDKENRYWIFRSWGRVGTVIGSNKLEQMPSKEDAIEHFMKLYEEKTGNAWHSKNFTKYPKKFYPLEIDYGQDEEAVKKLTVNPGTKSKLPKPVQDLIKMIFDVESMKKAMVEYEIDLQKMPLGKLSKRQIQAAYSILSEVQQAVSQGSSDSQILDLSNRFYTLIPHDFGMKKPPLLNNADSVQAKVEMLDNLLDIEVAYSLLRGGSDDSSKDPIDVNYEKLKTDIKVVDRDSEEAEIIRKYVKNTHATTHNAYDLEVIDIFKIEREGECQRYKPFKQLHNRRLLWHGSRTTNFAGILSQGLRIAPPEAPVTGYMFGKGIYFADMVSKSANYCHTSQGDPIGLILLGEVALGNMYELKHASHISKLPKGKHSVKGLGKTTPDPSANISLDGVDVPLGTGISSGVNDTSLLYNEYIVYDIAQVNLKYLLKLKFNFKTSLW

[3] = molecular target: T2, full length N-terminally FLAG-tagged PARP1; experiment: PARP1 biochemical DELFIA assay (auto-PARylation); design: recombinant full length human N-terminally FLAG-tagged PARP1
[4] = read-out: PARP1 HTRF, probe displacement HTRF
[5] = binned IC50, biochemical auto-PARylation assay
[6] = read-out: PARP1 HTRF, PARP1 probe displacement HTRF
[7] = binned IC50, PARP1 biochemical DELFIA assay

| SMILES | pKd ([1]; probe displacement HTRF) | pKd [2, 4] | pIC50 [3, 5] | pKd ([1]; PARP2 probe displacement HTRF) | pKd [2, 6] | pIC50 [3, 7] | pKd ([2]; PARP1 HTRF, probe displacement HTRF) | pKd ([2]; PARP1 HTRF, PARP1 probe displacement HTRF) | Selectivity ([2]; probe displacement HTRF) |
| --- | --- | --- | --- | --- | --- | --- | --- | --- | --- |
| CC(=O)Nc1ccc(N2CCC(N3CCC(c4nc5ccccc5c(=O)[nH]4)C3)CC2)cn1 (single isomer, unassigned) [Compound 220a] | 5.00 to 6.00 | 6.00 to 7.00 | 6.00 to 7.00 |  |  |  |  |  | − (− indicates a value of less than 10) |
| CNC(=O)c1ccc(N2CCC(N3CCCC(c4ncc(CC(F)(F)F)c(=O)[nH]4)C3)CC2)cn1 (single isomer, unassigned) [Compound 212a] |  |  |  | < 5.00 | 6.00 to 7.00 | 6.00 to 7.00 |  |  | + (+ indicates a value of 10 to less than 50) |
| O=C(NC1CC1)c1ccc(N2CCC(N3CCC(c4cc5cccc(F)c5c(=O)[nH]4)C3)CC2)cn1 (single isomer, unassigned) [Compound 339b] | 6.00 to 7.00 | > 8.00 | > 8.00 |  |  |  |  |  | +++ (+++ indicate a value of at least 100) |
| CCCc1ccc(C2CCN(C3CCN(c4ccc(C(=O)NC)nc4)CC3)C2)[nH]c1=O (single isomer, unassigned) [Compound 261a] | < 5.00 | 5.00 to 6.00 | 6.00 to 7.00 |  |  |  |  |  | − (− indicates a value of less than 10) |
| CNC(=O)c1ccc(N2CCC(N3CC4(c5nc6ncc(F)cc6c(=O)[nH]5)CC3C4)CC2)cn1 [Compound 368] | < 5.00 |  | > 8.00 |  |  |  | > 8.00 |  | +++ (+++ indicate a value of at least 100) |
| CNC(=O)c1ccc(N2CCC(N3CCC(c4[nH]c(=O)c5cc(F)ccc5c4F)C3)CC2)cn1 (single isomer, unassigned) [Compound 401b] | 7.00 to 8.00 | > 8.00 | > 8.00 |  |  |  |  |  | + (+ indicates a value of 10 to less than 50) |
| CNC(=O)c1ccc(N2CCC(N3CCCC(c4nc5onc(C(F)(F)F)c5c(=O)[nH]4)C3)CC2)cn1 (racemic) [Compound 191rac] |  |  |  | < 5.00 | 6.00 to 7.00 | 6.00 to 7.00 |  |  | + (+ indicates a value of 10 to less than 50) |
| N#Cc1nc(C(=O)NC2CC2)ccc1N1CCC(N2CCC(c3cc4cccc(F)c4c(=O)[nH]3)C2)CC1 (single isomer, unassigned) [Compound 410a] | 6.00 to 7.00 | > 8.00 | > 8.00 |  |  |  |  |  | +++ (+++ indicate a value of at least 100) |
| CCNC(=O)c1ccc(N2CCC(N3CCC(c4ccc(CC)c(=O)[nH]4)C3)CC2)cn1 (racemic) [Compound 171rac] |  |  |  | 6.00 to 7.00 | > 8.00 | > 8.00 |  |  | +++ (+++ indicate a value of at least 100) |
| CNC(=O)c1ccc(N2CCC(N3CCC(c4cc5[nH]nc(C(F)(F)F)c5c(=O)[nH]4)C3)CC2)cn1 (single isomer, unassigned) [Compound 194b, N-methyl-5-(4-(3-(4-oxo-3-(trifluoromethyl)-4,5-dihydro-1H-pyrazolo[4,3-c]pyridin-6-yl)pyrrolidin-1-yl)piperidin-1-yl)picolinamide] |  |  |  | 7.00 to 8.00 |  | > 8.00 |  | > 8.00 | + (+ indicates a value of 10 to less than 50) |
| CNC(=O)c1ccc(N2CCC(N3CCC(c4cc5c(C(F)(F)F)nn(C)c5c(=O)[nH]4)C3)CC2)cn1 (racemic) [Compound 392rac] | < 5.00 | 6.00 to 7.00 | 6.00 to 7.00 |  |  |  |  |  | + (+ indicates a value of 10 to less than 50) |
| CNC(=O)c1ccc(N2CCC(N3CCCC(c4nc5onc(C)c5c(=O)[nH]4)C3)CC2)cn1 (single isomer, unassigned) [Compound 159a] |  |  |  | < 5.00 | < 5.00 | < 5.00 |  |  | − (− indicates a value of less than 10) |
| CNC(=O)c1ccc(N2CCC(N3CCC(c4[nH]c(=O)c5ccccc5c4C(F)(F)F)C3)CC2)cn1 (single isomer, unassigned) [Compound 404a] | 5.00 to 6.00 | 7.00 to 8.00 | 7.00 to 8.00 |  |  |  |  |  | +++ (+++ indicate a value of at least 100) |
| CNC(=O)c1ccc(N2CCC(N3CCC(c4ccc(OC)c(=O)[nH]4)C3)CC2)cn1 (single isomer, unassigned) [Compound 148a] |  |  |  | < 5.00 | < 5.00 | 5.00 to 6.00 |  |  | − (− indicates a value of less than 10) |
| CNC(=O)c1ccc(N2CCC(N3CCC(c4nc5sc6c(c5c(=O)[nH]4)CCC6)C3)CC2)cn1 (single isomer, unassigned) [Compound 189b] |  |  |  | 7.00 to 8.00 | > 8.00 | > 8.00 |  |  | ++ (++ indicates a value of 50 to less than 100) |
| CCc1ccc(C2CCN(C3CCN(c4ccc(C(=O)NC)c(F)c4)CC3)C2)[nH]c1=O (racemic) [Compound 282rac] | 6.00 to 7.00 | 7.00 to 8.00 | 7.00 to 8.00 |  |  |  |  |  | + (+ indicates a value of 10 to less than 50) |

Continued, in another order:

| pKd ([1]; probe displacement HTRF) | pKd [2, 4] | pIC50 [3, 5] | pKd ([1]; PARP2 probe displacement HTRF) | pKd [2, 6] | pIC50 [3, 7] | pKd ([2]; PARP1 HTRF, probe displacement HTRF) | pKd ([2]; PARP1 HTRF, PARP1 probe displacement HTRF) | SMILES | Selectivity ([2]; probe displacement HTRF) |
| --- | --- | --- | --- | --- | --- | --- | --- | --- | --- |
|  |  |  | 5.00 to 6.00 | 5.00 to 6.00 | 5.00 to 6.00 |  |  | CCc1cnc(C2CCN(C3CCC(F)(F)CC3)C2)[nH]c1=O (single isomer, unassigned) [Compound 38a] | − (− indicates a value of less than 10) |
|  |  |  | 5.00 to 6.00 | 7.00 to 8.00 | 7.00 to 8.00 |  |  | CNC(=O)c1ccc(N2CCC(CN3CCC(c4nc5ccccc5c(=O)[nH]4)CC3)C2)cn1 (single isomer, unassigned) [Compound 50a] | + (+ indicates a value of 10 to less than 50) |
|  |  |  | 5.00 to 6.00 | > 8.00 | > 8.00 |  |  | CCc1ccc(C2CCN(C3CCN(c4ccc(C(=O)NC)nc4C(F)F)CC3)C2)[nH]c1=O (single isomer, unassigned) [Compound 164a] | +++ (+++ indicate a value of at least 100) |
|  |  |  | < 5.00 | 7.00 to 8.00 | 7.00 to 8.00 |  |  | CNC(=O)c1ccc(N2CCC(N3CCCC(c4ccc(C(C)C)c(=O)[nH]4)C3)CC2)cn1 (racemic) [Compound 132rac] | +++ (+++ indicate a value of at least 100) |
|  |  |  | 6.00 to 7.00 | > 8.00 | > 8.00 |  |  | COCCNC(=O)c1ccc(N2CCC(N3CCC(c4nc5ccccc5c(=O)[nH]4)C3)CC2)cn1 (racemic) [Compound 124rac] | +++ (+++ indicate a value of at least 100) |
| 7.00 to 8.00 | > 8.00 | > 8.00 |  |  |  |  |  | N#Cc1nc(C(=O)NC2CC2)ccc1N1CCC(N2CCC(c3cc4ccc(F)cc4c(=O)[nH]3)C2)CC1 (single isomer, unassigned) [Compound 397b] | +++ (+++ indicate a value of at least 100) |
| < 5.00 | < 5.00 | < 5.00 |  |  |  |  |  | CNC(=O)c1ccc(N2CCC(N3CCC(c4nc5c(C(F)(F)F)c[nH]c5c(=O)[nH]4)C3)CC2)cn1 (single isomer, unassigned) [Compound 293a] | − (− indicates a value of less than 10) |
| 6.00 to 7.00 | > 8.00 | > 8.00 |  |  |  |  |  | CNC(=O)c1ccc(N2CCC(N3CCC(c4cc5c(c(=O)[nH]4)COCC5)C3)CC2)cn1 (racemic) [Compound 405rac] | +++ (+++ indicate a value of at least 100) |
| < 5.00 | 7.00 to 8.00 | 7.00 to 8.00 |  |  |  |  |  | CCc1ccc(C2CCN(C3CCN(c4cnc(C(=O)NC)nc4C(F)(F)F)CC3)C2)[nH]c1=O (racemic) [Compound 278rac] | +++ (+++ indicate a value of at least 100) |
